Values of other authors, collected in US6852743B1, “Preventives for the recurrence of cerebrovascular failure and agents for ameliorating troubles following cerebrovascular failure and inhibiting progress thereof” (Takeda Pharmaceutical Company Limited, priority 1999, dated 2005).

How the values were obtained:
insulin sensitivity = settings: clinically; Iimura O. et al., Am J Hypertens 8, 353-357, 1995
[1] = system: automatic regulation of cerebral blood flow; settings: literature report, Vraamark T et al., J Hypertens 13:755-761, 1995

Row | SMILES | insulin sensitivity (insulin sensitivity) | effect on the lower limit of automatic regulation [1]
1 | CCOc1nc2cccc(C(=O)OC(C)OC(=O)OC3CCCCC3)c2n1Cc1ccc(-c2ccccc2-c2nnn[nH]2)cc1 (centres unmarked) [Candesartan cilexetil, 1-(cyclohexyloxycarbonyloxy)ethyl 2-ethoxy-1-[[2′-(1H-tetrazole-5-yl)biphenyl-4-yl]methyl]benzimidazole-7-carboxylate] | improve insulin sensitivity clinically | –
2 | CCOc1nc2cccc(C(=O)O)c2n1Cc1ccc(-c2ccccc2-c2nnn[nH]2)cc1 [Candesartan, 2-ethoxy-1-[[2′-(1H-tetrazole-5-yl)biphenyl-4-yl]methyl]benzimidazol-7-carboxylic acid] | – | can deviate the lower limit of automatic regulation leftward (toward lower blood pressure level)
